≈ marks a conversion by molar mass, not a printed value. Where “and” joins values, the source holds several entries; their conditions need not be identical. Identical values can stand only once.
How the values were obtained:
[1] = tested on: mice (C57B1/6xDBA/2)F1 B6D2F1; settings: single injection into tail vein, probit analysis
Method in brief: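 Male B6D2F1 mice, 20-22 g, given one tail-vein injection of antibiotic suspended with sodium deoxycholate in phosphate buffer, within 1-1.5 h of preparation. Doses spanned 0% to 100% lethality with at least 3 intermediate doses, in randomized groups of 6 mice.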

[2] = tested on: Cryptococcus humicolus ATCC 9949; test: Antifungal susceptibility study (1), broth microdilution MIC; format: cell-based; settings: lowest concentration preventing any visible growth, read at 48 hours, 25° C., RPMI 1640 pH 7.0
Method in brief: (§1)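 Broth microdilution in test medium at pH 7.0 with two-fold compound dilutions (DMSO stocks diluted 50-fold into medium), inoculated with freshly grown yeast cultures. Plates were incubated without agitation at 35° C. for C. albicans or 25° C. for C. humicolus. MIC was taken as the concentration with no visible growth, read at 48 hours.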

[3] = tested on: Candida albicans ATCC 14053; test: as above; format: cell-based; settings: lowest concentration preventing any visible growth, read at 48 hours, 35° C., RPMI 1640 pH 7.0
Method in brief: as §1

erythrocytes = test: In vitro toxicity study, haemolysis (Tables 11 and 12); format: cell-based, horse; settings: for Haemolysis of erythrocytes, Mean ± SE: 5 μg/mL (Table 11); for Haemolysis of erythrocytes: 5 μg/mL, individual blood samples # 1-3 (Table 11)
[4] = tested on: Candida albicans (strain 14053 ATCC); test: In vivo antifungal activity, kidney burden in infected mice; settings: day 5, individual mice
Protocol: Male mice of hybrids of first generation (C57B1/6xDBA/2)F1 B6D2F1, weight 20-22 g., received from the Central farm. “Kryukovo” of Russian Academies of Medical Science (RAMS) were used. Animals were maintained in a vivarium in plastic cages (with hardwood bedding in environmentally controlled conditions: 24±1° C., 12/12 hours light/dark cycle) on a standard diet of bricketed forages with easy access to drinking water (ad libitum). After a 2-week quarantine period, healthy animals were used in experimental work.
The solutions were prepared as follows: dry antibiotic substances (5 mg) were mixed with dry sodium deoxycholate (4.1 mg) in a sterile glass vial. 10 mL of phosphate buffer (NaH2PO4—1.59 g; Na2HPO4—0.96 g; H2O—to 100 mL) was added to the mix and the suspension was immediately subjected to vigorous shaking for 10 minutes until homogeneous suspensions were formed.
Animals were infected intravenously with Candida albicans culture at a dose of 1.0 million CFU/mouse (volume 0.1 mL). 30 minutes after infection, the antifungal agents were introduced intravenously into the mice at various doses in a volume of 0.2 mL (at a rate of 0.2 mL/30 second). Each dose was administered daily for four days including the day of infection (0, 1, 2 and 3 days).
As a control, there was a group of untreated mice (infected in the same way with Candida albicans). Also there was a “placebo” group of non-infected animals which were intravenously administered (in the same volume as antifungal agent preparations) 0.2 mL of solvent (phosphatic buffer +5% glucose (1:1)).
On the 5th day of experiment, mice were weighed and euthanized (killed) by a cervical dislocation. Then, in sterile conditions, the Candida albicans burden of each mouse was determined by counting of viable homogenates from the kidneys. The kidneys were removed aseptically and weighed, then pounded in porcelain mortars with sterile corundum. Dilutions of the resulting suspensions were prepared and sowed on Petri dishes with agar Saburo, incubated for 24 hours at a temperature of 35° C. Developed colonies of Candida albicans were then counted and their quantity calculated on the basis of 1 g of kidney tissue.

human blood erythrocytes = test: In vitro toxicity study, haemolysis (Table 10); format: cell-based; settings: for Haemolysis of human blood erythrocytes: individual blood samples # 1-3, listed as Amp B
Solubility in 5% glucose = format: physicochemical
[5] = 0.08 mg/kg × 4/24 i.v., colonies per 1 g of kidney tissue
[6] = 0.8 mg/kg × 4/24 i.v., colonies per 1 g of kidney tissue
[7] = 2.5 mg/kg × 4/24 i.v., colonies per 1 g of kidney tissue
[8] = 5 mg/kg × 4/24 i.v., Candida albicans colonies per 1 g of kidney tissue

Structure (SMILES) | LD50 [1] | MTD [1] | MIC Cryptococcus humicolus ATCC 9949 [2] | MIC Candida albicans ATCC 14053 [3] | Haemolysis of erythrocytes, Mean ± SE (erythrocytes) | Haemolysis of erythrocytes (erythrocytes) | Number of Colonies [4, 5] | Number of Colonies [4, 6] | Number of Colonies [4, 7] | Number of Colonies [4, 8] | Haemolysis of erythrocytes (erythrocytes; listed as Amp B) | Haemolysis of human blood erythrocytes, MEAN ± SE (human blood erythrocytes; 2 μg/mL) | Haemolysis of human blood erythrocytes (human blood erythrocytes; 2 μg/mL) | Haemolysis of human blood erythrocytes, MEAN ± SE (human blood erythrocytes; 5 μg/mL) | Haemolysis of human blood erythrocytes (human blood erythrocytes; 5 μg/mL) | solubility in 5% glucose (Solubility in 5% glucose) | Number of Colonies ([4]; 0.08 mg/kg × 4/24 i.v., colonies per 1 g of kidney tissue, listed as Amp B) | Number of Colonies ([4]; 0.8 mg/kg × 4/24 i.v., colonies per 1 g of kidney tissue, listed as Amp B) | Number of Colonies ([4]; 2.5 mg/kg × 4/24 i.v., colonies per 1 g of kidney tissue, listed as Amp B)
CC1C=CC=CC=CC=CC=CC=CC=CC(OC2OC(C)C(O)C(N)C2O)CC2OC(O)(CC(O)C(O)CCC(O)CC(O)CC(O)CC(=O)OC(C)C(C)C1O)CC(O)C2C.NC(CCC(=O)O)C(=O)O [Compound 29, Compound 1 L-glutamate] | 17.8 mg/kg | 11.0 mg/kg | 1 µg/mL | 1 µg/mL |  |  |  |  |  |  |  |  |  |  |  |  |  |  | 
CC1C=CC=CC=CC=CC=CC=CC=CC(OC2OC(C)C(O)C(N)C2O)CC2OC(O)(CC(O)C(O)CCC(O)CC(O)CC(O)CC(=O)OC(C)C(C)C1O)CC(O)C2C(=O)NCCCN(C)C (stereo not shown) [Compound 11, S44HP DMAP Amide] | 16.4 mg/kg | 11.9 mg/kg | 1 µg/mL (≈ 0.992 µM) | 1 µg/mL (≈ 0.992 µM) | 3.2 ± 0.1% | 3% and 3.4% and 3.3% | 3.0 × 10^4 and 2.7 × 10^4 and 1.5 × 10^4 | 1.2 × 10^3 and 3.0 × 10^3 and 2.5 × 10^3 | <10^1 and 1.0 × 10^1 (2×) | 0 (2×) and <10^1 |  |  |  |  |  |  |  |  | 
CC1C=CC=CC=CC=CC=CC=CC=CC(OC2OC(C)C(O)C(N)C2O)CC2OC(O)(CC(O)C(O)CCC(O)CC(O)CC(O)CC(=O)OC(C)C(C)C1O)CC(O)C2C (stereo not shown) [Compound 1] | 15.4 mg/kg | 7.8 mg/kg | 1 µg/mL (≈ 1.12 µM) | 1 µg/mL (≈ 1.12 µM) |  |  | 2.4 × 10^4 (2×) and 2.8 × 10^4 | 2.5 × 10^3 and 1.2 × 10^3 and 5.0 × 10^3 | 2.0 × 10^1 (2×) and 1.0 × 10^1 | 1.0 × 10^1 (2×) and 0 |  |  |  |  |  |  |  |  | 
C[C@@H]1[C@H](O)[C@@H](C)/C=C/C=C/C=C/C=C/C=C/C=C/C=C/[C@H](O[C@@H]2O[C@H](C)[C@@H](O)[C@H](N)[C@@H]2O)C[C@@H]2O[C@](O)(C[C@@H](O)C[C@@H](O)[C@H](O)CC[C@@H](O)C[C@@H](O)CC(=O)O[C@H]1C)C[C@H](O)[C@H]2C(=O)O [Amphotericin B, reference compound] | 2.8 mg/kg | 2.01 mg/kg | 1 µg/mL (≈ 1.08 µM) | 1 µg/mL (≈ 1.08 µM) | 39.7 ± 1.2% |  |  |  |  |  | 39% and 38% and 42% | 6.1 ± 1.0% | 4.4% and 5.9% and 8.0% | 30.3 ± 0.6% | 30% and 29.5% and 31.5% | < 1 mg/mL | 1.8 × 10^4 and 2.6 × 10^4 and 3.4 × 10^4 | 2 × 10^3 and 6 × 10^3 and 4 × 10^3 | 1.0 × 10^3 and 2.2 × 10^2 and 2.8 × 10^2
CC1O[C@@H](O[C@H]2/C=C/C=C/C=C/C=C/C=C/C=C/C=C/[C@H](C)[C@@H](O)[C@@H](C)[C@H](C)OC(=O)C[C@H](O)C[C@H](O)C[C@H](O)CC[C@@H](O)[C@H](O)C[C@]3(O)C[C@H](O)[C@@H](C)[C@H](C2)O3)[C@H](O)C(NC(=O)[C@@H](N)CCCCN)[C@@H]1O (stereo partly drawn) [Compound 51, N-L-Lysyl-Compound 1] | 5.3 mg/kg | 4.48 mg/kg | 1 µg/mL (≈ 0.978 µM) | 1 µg/mL (≈ 0.978 µM) |  |  |  |  |  |  |  |  |  |  |  |  |  |  | 

From patent US8415312B2, “Compound which is a nystatin derivative” (Biosergen AS, priority 2007, dated 2013)
